In patent US20250197373A1, “SMALL MOLECULE COMPOUND OR SALT THEREOF OR SOLVATE OF THEM, GUANINE NUCLEOTIDE-BINDING PROTEIN G(Q) SUBUNIT ALPHA (GNAQ) INHIBITOR CONTAINING THE SAME AND METHOD FOR TREATING AND/OR PREVENTING CANCER” (INDUSTRIAL TECHNOLOGY RESEARCH INSTITUTE, priority 2023, published 2025) one finds inhibition and IC50 data, which are given here for 15 compounds.

One experiment has as its target T1, GNAQ (WT) (Homo sapiens, UniProt P50148).
T1 construct: BPS Bioscience (parental reporter cell line) 60406
T1 sequence (P50148 1-359): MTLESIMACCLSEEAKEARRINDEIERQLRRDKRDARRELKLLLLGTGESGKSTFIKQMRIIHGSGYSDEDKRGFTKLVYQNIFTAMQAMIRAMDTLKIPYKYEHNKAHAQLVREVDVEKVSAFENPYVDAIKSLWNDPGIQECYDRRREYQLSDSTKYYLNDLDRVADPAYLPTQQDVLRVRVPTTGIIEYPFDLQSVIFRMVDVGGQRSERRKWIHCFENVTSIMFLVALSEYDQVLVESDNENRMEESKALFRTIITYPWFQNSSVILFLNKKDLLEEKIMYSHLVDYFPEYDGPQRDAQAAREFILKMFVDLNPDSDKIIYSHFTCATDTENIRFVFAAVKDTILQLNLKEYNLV
The experiment can be described thus: SRE luciferase reporter gene-HEK293 cell line, GNAQ (WT). It counts as cell-based. To be noted: Cell type WT, 20% FBS induction, read-out: GNAQ inhibitory rate; for inhibition at 0.9 µM: analytical concentration 900 nM; for inhibition at 2.7 µM: analytical concentration 2,700 nM; for inhibition at 8.1 µM: analytical concentration 8,100 nM. On the procedure:
7.5×10^4 SRE-293-GNAQ (WT) or SRE-293-GNAQ (T96S) cell lines were seeded in a 24-well plate and cultured in a carbon dioxide incubator at 37° C. SRE-293-GNAQ (WT) or SRE-293-GNAQ (T96S) cell lines was derived from additionally transfecting SRE Reporter—HEK293 Recombinant Cell Line (ERK Pathway) (Catalog number: 60406; BPS Bioscience) cells with an expression vector separately expressing GNAQ (WT) or GNAQ (T96S), and screening a stable expression cell line by the antibiotic, geneticin (type number 10131035; Thermo Fisher Scientific). GNAQ (WT) or GNAQ (T96) expression vector was derived from gene synthesis and point mutation modification of GenScript company's customized services.
After 48 hours of culture, the culture medium in the 24-well plate was replaced with minimal essential medium (MEM) containing only 0.1% fetal bovine serum (FBS) and the cells were cultured overnight.
After overnight culture, the compound to be tested was added to the cells and reacted for 2 hours, and the medium at this point was still MEM medium containing only 0.1% fetal bovine serum. After reacting with the compound to be tested for 2 hours, fetal bovine serum at a final concentration of 20% was added to the cells and reacted for at least 4 hours. After the reaction, the supernatant was removed. Next, 100 μL of cell lysis reagent CelLytic M Cell Lysis Reagent (Catalog number: C2978; Sigma) was added to the cells and aspirated repeatedly several times to form a cell lysate solution with the cells. The cell lysate solution was collected in a microcentrifuge tube and centrifuged at a high speed of 14,000 rpm for 5 minutes. After that, 30 μL of supernatant was taken out and placed in a 96-well white plate for luminescence analysis, and 30 μL of firefly luminescence analysis reagent (Catalog No. E1501; Promega) diluted 3-fold was added and mixed well, and then luminescence detection was performed with a plate enzyme immunoassay analyzer (ELISA reader) to evaluate the effect of the compound to be tested on MAPK signaling induced by GNAQ through the expression of the firefly luciferase reporter gene.
In order to confirm the effect of the compounds on MAPK signaling induced by GNAQ, the screened SRE-HEK293 cells capable of expressing exogenous GNAQ (WT) and GNAQ (T96S) genes were subjected to overnight serum starvation, and 2 hours before induction with 20% fetal bovine serum, the compound to be tested (one of Compound 1 to Compound 15 prepared above) was added to the cells, and after serum induction, the expression of the firefly luciferase reporter gene was measured. Through the above steps, the inhibition of the compound to be tested on GNAQ expression could be evaluated through the expression of the reporter gene in cells.

The next experiment relates to MCF-7 GNAQ (T96S) cells. The experiment can be described thus: Inhibition of growth of mammary gland cancer cells MCF-7 GNAQ (T96S) (PrestoBlue). It counts as cell-based. To be noted: Homo sapiens, MCF7, 168 h, 7 days culture, 2% fetal bovine serum, read-out: Inhibitory activity (evaluated by IC50). On the procedure:
Human mammary gland cancer cells, MCF-7 cells and MCF-7 GNAQ (T96S) cells (MCF-7 cells expressing GNAQ (T96S) after GNAQ gene deletion) were cultured in MEM medium.
1×10^3 of the cells mentioned above were seeded in a 96-well plate and cultured overnight (at least 16 hours) in a carbon dioxide incubator.
After overnight incubation, the supernatant was removed. Next, after 200 μL of cell culture medium (containing 2% fetal bovine serum) containing different concentrations of test compound was added to each well of the 96-well plate, the 96-well plate was placed in a 5% carbon dioxide incubator at 37° C. for 7 days further culture. After that, an additional 30 μL of diluted PrestoBlue™ Cell Viability Reagent (Catalog Number: A13261; Thermo Fisher Scientific) (4 μL stock solution and 26 μL culture medium) was added to each well of the 96-well plate and the reaction was continued for further about 1 hour.
Finally, the fluorescence value at the wavelength of 535/615 nm of each well was read with a plate enzyme immunoassay analyzer, and the inhibitory rate of the compound on mammary gland cancer cells were calculated using the following formula.
Moreover, the half maximal inhibitory concentration (IC50) of the compound on the growth of mammary gland cancer cells was calculated with the inhibitory rate of the compound on mammary gland cancer cells at each concentration through the online half maximal inhibitory concentration (IC50) calculation software, IC50 Calculator, provided by AAT Bioquest company on its website (https://www.aatbio.com/tools/ic50-calculator).
Finally, the inhibition of the compound on the growth of mammary gland cancer cells was evaluated by the calculated half maximal inhibitory concentration (IC50) of the compound on the growth of mammary gland cancer cells.
The inhibition of the compound on the growth of breast cancer cells was evaluated by the half maximal inhibitory concentration (IC50) of the compound (one of Compound 1 to Compound 15 prepared above) on the growth of mammary gland cancer cells through the human mammary gland cancer cell line MCF-7 and the human mammary gland cancer cell line MCF-7 GNAQ (T96S) expressing the mutated gene.

`O=C(Nc1cccc(-c2cccc(-c3ccncc3)n2)c1)Nc1cc(Cl)nc(Cl)c1` [Compound 13]: at GNAQ (WT), the inhibition at 0.9 µM is 10 to 39%, the inhibition at 2.7 µM lay in the range of 40 to 70% and the inhibition at 8.1 µM was more than 70%. The concentration for half-maximal inhibition (IC50) in the experiment with MCF-7 GNAQ (T96S) cells lay within 310 to 2500 nM.

Regarding `O=C(Nc1cccc(-c2ccnc(-c3ccc(F)c(F)c3)n2)c1)Nc1cc(Cl)nc(Cl)c1` [Compound 4], on GNAQ (WT), the inhibition at 0.9 µM was less than 10%, the inhibition at 2.7 µM lay within 10 to 39% and the inhibition at 8.1 µM lay in the range of 40 to 70%. For the same compound, the concentration for half-maximal inhibition (IC50) with MCF-7 GNAQ (T96S) cells lay within 310 to 2500 nM.

In the case of `FC(F)(F)c1cccc(-c2cccc(-c3ccc(NC(=S)Nc4cc(Cl)nc(Cl)c4)cc3)n2)c1` [Compound 10], at GNAQ (WT), the inhibition at 0.9 µM is 10 to 39%, the inhibition at 2.7 µM fell in the range of 40 to 70% and the inhibition at 8.1 µM was more than 70%. In the experiment on MCF-7 GNAQ (T96S) cells, the 50% inhibitory concentration (IC50) lay within 310 to 2500 nM.

As to `O=C(Nc1ccc(-c2cccc(-c3cccc(C(F)(F)F)c3)n2)cc1)Nc1cc(Cl)nc(Cl)c1` [Compound 9], at GNAQ (WT), the inhibition at 0.9 µM fell in the range of 10 to 39%, the inhibition at 2.7 µM was in the range of 10 to 39% and the inhibition at 8.1 µM is more than 70%. In addition, the IC50 in the experiment with MCF-7 GNAQ (T96S) cells lay in the range of 310 to 2500 nM.

`O=C(Nc1ccc(-c2cccc(-c3ccncc3)n2)cc1)Nc1ccc(Cl)c(C(F)(F)F)c1` [Compound 12]: on GNAQ (WT), the inhibition at 0.9 µM is 10 to 39%, the inhibition at 2.7 µM lay in the range of 10 to 39% and the inhibition at 8.1 µM lay within 40 to 70%. Further, the IC50 in the experiment with MCF-7 GNAQ (T96S) cells was in the range of 310 to 2500 nM.

With `O=C(Nc1ccc(-c2nc(-c3ccccc3)ncc2Cl)cc1)Nc1cc(Cl)nc(Cl)c1` [Compound 15], on GNAQ (WT), the inhibition at 0.9 µM is less than 10%, the inhibition at 2.7 µM was 10 to 39% and the inhibition at 8.1 µM was more than 70%. In the experiment on MCF-7 GNAQ (T96S) cells, the IC50 was less than 310 nM.

With `O=C(Nc1ccc(-c2ccnc(-c3cccc(C(F)(F)F)c3)n2)cc1)Nc1cc(Cl)nc(Cl)c1` [Compound 7], at GNAQ (WT), the inhibition at 0.9 µM was less than 10%, the inhibition at 2.7 µM is less than 10% and the inhibition at 8.1 µM fell in the range of 10 to 39%. In addition, the IC50 with MCF-7 GNAQ (T96S) cells was in the range of 310 to 2500 nM.

As for `O=C(Nc1cccc(-c2ccnc(-c3cccc(C(F)(F)F)c3)n2)c1)Nc1cc(Cl)nc(Cl)c1` [Compound 2], at GNAQ (WT), the inhibition at 0.9 µM was in the range of 10 to 39%, the inhibition at 2.7 µM lay in the range of 10 to 39% and the inhibition at 8.1 µM is more than 70%. Moreover, the IC50 with MCF-7 GNAQ (T96S) cells was in the range of 310 to 2500 nM.

For the compound `N#Cc1cccc(-c2nccc(-c3cccc(NC(=O)Nc4cc(Cl)nc(Cl)c4)c3)n2)c1` [Compound 3], at GNAQ (WT), the inhibition at 0.9 µM fell in the range of 10 to 39%, the inhibition at 2.7 µM was 10 to 39% and the inhibition at 8.1 µM is more than 70%. Besides, the IC50 in the experiment with MCF-7 GNAQ (T96S) cells is 310 to 2500 nM.

With `N#Cc1cccc(-c2cccc(-c3ccc(NC(=S)Nc4cc(Cl)nc(Cl)c4)cc3)n2)c1` [Compound 11], on GNAQ (WT), the inhibition at 0.9 µM fell in the range of 10 to 39%, the inhibition at 2.7 µM was in the range of 40 to 70% and the inhibition at 8.1 µM was more than 70%. Also, the 50% inhibitory concentration (IC50) in the experiment on MCF-7 GNAQ (T96S) cells lay in the range of 310 to 2500 nM.

In the case of `O=C(Nc1cccc(-c2ccnc(-c3cccc(C(F)(F)F)c3)n2)c1)c1cc(Cl)nc(Cl)c1` [Compound 5], at GNAQ (WT), the inhibition at 0.9 µM was less than 10%, the inhibition at 2.7 µM was 10 to 39% and the inhibition at 8.1 µM is less than 10%. For the same compound, the concentration for half-maximal inhibition (IC50) with MCF-7 GNAQ (T96S) cells was 310 to 2500 nM.

On to `O=C(Nc1ccc(-c2ccnc(-c3cccc(C(F)(F)F)c3)n2)cc1)Nc1ccc(Cl)c(C(F)(F)F)c1` [Compound 8], for which, on GNAQ (WT), the inhibition at 0.9 µM is less than 10%, the inhibition at 2.7 µM is less than 10% and the inhibition at 8.1 µM is less than 10%. Also, in the experiment with MCF-7 GNAQ (T96S) cells, the half-inhibitory concentration (IC50) fell in the range of 310 to 2500 nM.

As to `O=C(Nc1cccc(-c2cc(-c3cccc(C(F)(F)F)c3)ncn2)c1)Nc1cc(Cl)nc(Cl)c1` [Compound 14], at GNAQ (WT), the inhibition at 0.9 µM is less than 10%, the inhibition at 2.7 µM was 10 to 39% and the inhibition at 8.1 µM is 40 to 70%. For the same compound, the half-inhibitory concentration (IC50) in the experiment on MCF-7 GNAQ (T96S) cells was less than 310 nM.

`O=C(Nc1cccc(-c2ccnc(-c3ccnc(Cl)c3)n2)c1)Nc1cc(Cl)nc(Cl)c1` [Compound 1]: on GNAQ (WT), the inhibition at 0.9 µM was less than 10%, the inhibition at 2.7 µM is 10 to 39% and the inhibition at 8.1 µM was more than 70%. Moreover, in the experiment with MCF-7 GNAQ (T96S) cells, the concentration for half-maximal inhibition (IC50) was in the range of 310 to 2500 nM.

As for `O=C(Nc1ccc(-c2ccnc(-c3ccncc3)n2)cc1)Nc1ccc(Cl)c(C(F)(F)F)c1` [Compound 6], at GNAQ (WT), the inhibition at 0.9 µM is less than 10%, the inhibition at 2.7 µM fell in the range of 10 to 39% and the inhibition at 8.1 µM fell in the range of 10 to 39%. The IC50 in the experiment on MCF-7 GNAQ (T96S) cells was 310 to 2500 nM.
